Experimental data: patent US11028051B2, “Tetrahydroquinoline-based bromodomain inhibitors” (St. Jude Children's Research Hospital, priority 2016, dated 2021)

What was measured:
Test in all cases: competitive TR-FRET assay, BET-BD with acetylated peptide ligand
Type in all cases: binding
BRDT = BRDT (Homo sapiens, UniProt Q58F21); details: BRDT; Table 11 additional modifications; read-out: BRDT EC50
Method: (§1) Inhibitor potency was determined using a competitive TR-FRET assay as detailed herein, measuring interaction of the respective BET-BD with an acetylated peptide ligand (Table 2).

BRD2-BD2 = BRD2-BD2 (Homo sapiens (Human), UniProt P25440); details: for EC50: BRD2-BD2, Table 11 additional modifications, read-out: 2.2 EC50; for 2.1/2.2: ratio of BRD2-BD1 EC50 to BRD2-BD2 EC50 (selectivity)
Sequence of BRD2-BD2 (P25440 344-453): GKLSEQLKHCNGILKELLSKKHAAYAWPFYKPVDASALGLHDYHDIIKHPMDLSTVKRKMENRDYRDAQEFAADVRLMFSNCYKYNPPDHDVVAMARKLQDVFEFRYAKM
Method: as §1

BRD3-BD1 = BRD3-BD1 (Homo sapiens (Human), UniProt Q15059); details: BRD3-BD1; Table 11 additional modifications; read-out: 3.1 EC50
Sequence of BRD3-BD1 (Q15059 34-140): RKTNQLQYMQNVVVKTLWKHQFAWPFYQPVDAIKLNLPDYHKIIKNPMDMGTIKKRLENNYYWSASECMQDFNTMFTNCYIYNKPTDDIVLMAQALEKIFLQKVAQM
Method: as §1

BRD4-BD1 = BRD4-BD1 (Homo sapiens (Human), UniProt O60885); details: BRD4-BD1; Table 11 additional modifications; read-out: 4.1 EC50
Method: as §1

BRD2-BD1 = BRD2-BD1 (Homo sapiens (Human), UniProt P25440); details: BRD2-BD1; Table 11 additional modifications; read-out: 2.1 EC50
Sequence of BRD2-BD1 (P25440 74-180): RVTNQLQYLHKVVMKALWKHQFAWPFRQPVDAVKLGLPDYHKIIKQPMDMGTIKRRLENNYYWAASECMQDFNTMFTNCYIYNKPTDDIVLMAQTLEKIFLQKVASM
Method: as §1

Row | EC50 (BRDT) [nM] | EC50 (BRD2-BD2) [nM] | 2.1/2.2 (BRD2-BD2) | EC50 (BRD3-BD1) [nM] | EC50 (BRD4-BD1) [nM] | EC50 (BRD2-BD1) [nM] | SMILES
1 | > 36000 | 23 | 20 | 78 | 1100 | 470 | CC(=O)Nc1cccc(-c2ccc3c(c2)[C@H](Nc2ccc(CN)cc2)C[C@H](C)N3C(C)=O)c1 [compound 26]
2 | 660 | 35 | 6.3 | 310 | 2100 | 220 | CC(=O)Nc1cccc(-c2ccc3c(c2)[C@H](Nc2ccc(-c4nnn(C)n4)cc2)C[C@H](C)N3C(C)=O)c1 [compound 27]
3 | > 52000 | 10 |  | > 52000 | > 52000 | > 52000 | CC(=O)Nc1cccc(-c2ccc3c(c2)[C@H](Nc2ccc(-c4nnnn4C)cc2)C[C@H](C)N3C(C)=O)c1 [compound 28]
4 | 300 | 8 | 58 | 260 | 1200 | 460 | CC(=O)Nc1cccc(-c2ccc3c(c2)[C@H](Nc2ccc(C#N)cc2)C[C@H](C)N3C(C)=O)c1 [compound 29]
5 | 4800 | 20 | 145 | 9800 | > 70000 | 2900 | CC(=O)Nc1cccc(-c2ccc3c(c2)[C@H](Nc2ccc(C(=O)CO)cc2)C[C@H](C)N3C(C)=O)c1 [compound 30]
6 | 1200 | 20 | 44 | 290 | 590 | 880 | CC(=O)Nc1cccc(-c2ccc3c(c2)[C@H](Nc2cccc4ncccc24)C[C@H](C)N3C(C)=O)c1 [compound 31]
7 | > 23000 | > 23000 |  | > 23000 | > 23000 | > 23000 | CC(=O)Nc1cccc(-c2ccc3c(c2)[C@H](Nc2cccc4ccccc24)C[C@H](C)N3C(C)=O)c1 [compound 32]
8 | > 4900 | 10000 |  | > 4900 | > 4900 | > 4900 | CC(=O)Nc1cccc(-c2ccc3c(c2)[C@H](Nc2cccc4cccnc24)C[C@H](C)N3C(C)=O)c1 [compound 33]
9 | 890 | 20 | 21 | 510 | 5100 | 410 | CC(=O)Nc1cccc(-c2ccc3c(c2)[C@H](Nc2ccc(-c4nnco4)cc2)C[C@H](C)N3C(C)=O)c1 [compound 34]
10 | 140 | 12 | 6.7 | 130 | 2500 | 80 | CC(=O)Nc1cccc(-c2ccc3c(c2)[C@H](Nc2ccc(-c4nnc(C)o4)cc2)C[C@H](C)N3C(C)=O)c1 [compound 35]
11 | 1200 | 120 | 4.6 | 150 | 380 | 580 | CC(=O)N1c2ccc(-c3cccc(NS(C)(=O)=O)c3)cc2[C@H](NC(=O)OC(C)C)C[C@@H]1C [compound 93]
12 | 84000 | 170 | 1.2 | 430 | 1400 | 2000 | CC(=O)N1c2ccc(-c3cccc(NC(=O)C4CC4)c3)cc2[C@H](NC(=O)OC(C)C)C[C@@H]1C [compound 94]
13 | 510 | 420 | 1.2 | 380 | 2000 | 3100 | CC(=O)N1c2ccc(-c3cccc(NC(=O)c4ccc(C)cc4)c3)cc2[C@H](NC(=O)OC(C)C)C[C@@H]1C [compound 95]
14 | 6200 | 790 | 11 | 830 | 1900 | 2600 | CC(=O)N1c2ccc(-c3cccc(NCC(C)C)c3)cc2[C@H](NC(=O)OC(C)C)C[C@@H]1C [compound 96]
15 | 40000 | 2500 | 4.8 | 7800 | 20000 | 100000 | CC(=O)N1c2ccc(-c3ccnn3C)cc2[C@H](NC(=O)OC(C)C)C[C@@H]1C [compound 97]
16 | 1200 | 120 | 15 | 240 | 900 | 1500 | CC(=O)N1c2ccc(-c3cccc(NC(=O)C(C)C)c3)cc2[C@H](NC(=O)OC(C)C)C[C@@H]1C [compound 98]
17 | 730 | 120 | 12 | 250 | 1000 | 940 | CC(=O)N1c2ccc(-c3cccc(NC(=O)C4CCCCC4)c3)cc2[C@H](NC(=O)OC(C)C)C[C@@H]1C [compound 99]
18 | 8700 | 90 | 36 | 1800 |  | 4600 | C#CCCCC(=O)Nc1cccc(-c2ccc3c(c2)[C@H](Nc2ccc(C(=O)OC)cc2)C[C@H](C)N3C(C)=O)c1 [compound 138]

Row | EC50 (BRDT) [nM] | EC50 (BRD2-BD2) [nM] | 2.1/2.2 (BRD2-BD2) | EC50 (BRD3-BD1) [nM] | EC50 (BRD4-BD1) [nM] | EC50 (BRD2-BD1) [nM] | SMILES
19 | 1900 | 230 | 3.4 | 690 |  | 790 | C#CCCNC(=O)c1ccc(N[C@@H]2C[C@H](C)N(C(C)=O)c3ccc(-c4cccc(NC(C)=O)c4)cc32)cc1 [compound 139]
20 | > 82000 | 1400 | 22.9 | 31000 |  | 21000 | CC(=O)N1c2ccc(-c3cccc(-n4cccn4)c3)cc2[C@H](Nc2ccccc2OC(F)(F)F)C[C@@H]1C [compound 140]
21 | 5200 | 500 | 0.015 | 1700 |  | 2500 | COC(=O)c1ccc(N[C@@H]2C[C@H](C)N(C(C)=O)c3ccc(-c4cccc(NCC5CC5)c4)cc32)cc1 [compound 141]
22 | 8300 | 230 | 52 | 2500 |  | 2500 | COC(=O)c1ccc(N[C@@H]2C[C@H](C)N(C(C)=O)c3ccc(-c4cccc(NCCC(C)C)c4)cc32)cc1 [compound 142]
23 | 34000 | 1100 | 93 | 11000 |  | 8000 | CCCCN(CCCC)c1cccc(-c2ccc3c(c2)[C@H](Nc2ccc(C(=O)OC)cc2)C[C@H](C)N3C(C)=O)c1 [compound 143]
24 | 15000 | 290 | 7.0 | 3100 |  | 3800 | COC(=O)c1ccc(N[C@@H]2C[C@H](C)N(C(C)=O)c3ccc(-c4ccnn4C)cc32)cc1 [compound 144]
25 | > 58000 | 390 | 5.0 | 21000 |  | 19000 | CC(=O)N1c2ccc(-c3ccnn3C)cc2[C@H](Nc2ccccc2OC(F)(F)F)C[C@@H]1C [compound 145]
26 | > 78000 | 9600 | 22 | > 78000 |  | 78000 | CCCCN(CCCC)c1cccc(-c2ccc3c(c2)[C@H](Nc2ccccc2OC(F)(F)F)C[C@H](C)N3C(C)=O)c1 [compound 146]
27 | 17000 | 1600 | 7.4 | 9400 |  | 7200 | COc1cccc(-c2ccc3c(c2)[C@H](Nc2ccc(Cl)cc2)C[C@H](C)N3C(C)=O)c1 [compound 147]
28 | > 90000 | 34000 | 16 | > 90000 |  | 90000 | CC(=O)N1c2ccc(-c3cccc(N(CCC(C)C)CCC(C)C)c3)cc2[C@H](Nc2ccccc2OC(F)(F)F)C[C@@H]1C [compound 148]
29 | 3600 | 140 | 10 | 1000 |  | 1300 | CC(=O)N(C)c1cccc(-c2ccc3c(c2)[C@H](Nc2ccc(Cl)cc2)C[C@H](C)N3C(C)=O)c1 [compound 149]
30 | > 72000 | 22000 | 13 | > 72000 |  | 72000 | CCCCCN(CCCCC)c1cccc(-c2ccc3c(c2)[C@H](Nc2ccccc2OC(F)(F)F)C[C@H](C)N3C(C)=O)c1 [compound 150]
31 | 26000 | 670 | 49 | 8300 |  | 14000 | CC(=O)N1c2ccc(-c3cccc(NCC4CCOC4)c3)cc2[C@H](Nc2ccccc2OC(F)(F)F)C[C@@H]1C (stereo partly drawn) [compound 151]
32 | > 79000 | 8400 |  | 78000 |  | 79000 | CC(=O)N1c2ccc(-c3cccc(N(CC4CC4)CC4CC4)c3)cc2[C@H](Nc2ccccc2OC(F)(F)F)C[C@@H]1C [compound 152]
33 | > 90000 | 1700 | 8.2 | 39000 |  | 90000 | CC(=O)N1c2ccc(-c3cccc(NCCC(F)(F)F)c3)cc2[C@H](Nc2ccccc2OC(F)(F)F)C[C@@H]1C [compound 153]
34 | > 84000 | 1800 | 4.6 | 27000 |  | 20000 | CC(=O)N1c2ccc(-c3cccc(NC4CCCC4)c3)cc2[C@H](Nc2ccccc2OC(F)(F)F)C[C@@H]1C [compound 154]
35 | > 84000 | 5700 | 2.6 | 79000 |  | 17000 | CCCN(CCC)c1cccc(-c2ccc3c(c2)[C@H](Nc2ccccc2OC(F)(F)F)C[C@H](C)N3C(C)=O)c1 [compound 155]
36 | > 30000 |  |  | > 30000 | > 30000 | > 30000 | COc1cc(F)ccc1N[C@@H]1C[C@H](C)N(C(C)=O)c2ccc(-c3cccc(CNCC(F)(F)F)c3)cc21 [compound 169]
